Reference: ChEMBL document CHEMBL1150202, “Modified Taxols, 6. Preparation of Water-Soluble Prodrugs of Taxol” (J Nat Prod, 1991)
Values after ≈ are worked out from the molar mass of the structure shown.

What was measured:
[1] = Cytotoxicity against human HCT/VP35 cells; type: functional, cell-based
[2] = test system: P388; experiment: In vivo cytotoxicity against mouse P388 cells at 8 mg/kg, ip, scheduled Q01D for 5 days relative to control; type: functional
[3] = test system: HCT-116; experiment: Cytotoxicity against human HCT116 cells; type: functional, cell-based
[4] = test system: A549; experiment: Cytotoxicity against human A549 cells; type: functional, cell-based
[5] = test system: P388; experiment: In vivo cytotoxicity against mouse P388 cells at 32 mg/kg, ip, scheduled Q01D for 5 days relative to control; type: functional
[6] = test system: P388; experiment: In vivo cytotoxicity against mouse P388 cells at 4 mg/kg, ip, scheduled Q01D for 5 days relative to control; type: functional
[7] = Cytotoxicity against human A549/VP cells; type: functional, cell-based
[8] = test system: B16; experiment: Cytotoxicity against mouse B16 cells grown in PRIM medium; type: functional, cell-based
[9] = test system: P388; experiment: In vivo cytotoxicity against mouse P388 cells at 16 mg/kg, ip, scheduled Q01D for 5 days relative to control; type: functional
[10] = test system: P388; experiment: In vivo cytotoxicity against mouse P388 cells at 64 mg/kg, ip, scheduled Q01D for 5 days relative to control; type: functional
[11] = test system: P388; experiment: In vivo cytotoxicity against mouse P388 cells at 2.5 mg/kg, ip, scheduled Q01D for 5 days relative to control; type: functional
[12] = test system: P388; experiment: In vivo cytotoxicity against mouse P388 cells at 20 mg/kg, ip, scheduled Q01D for 5 days relative to control; type: functional
[13] = test system: P388; experiment: In vivo cytotoxicity against mouse P388 cells at 5 mg/kg, ip, scheduled Q01D for 5 days relative to control; type: functional
[14] = test system: P388; experiment: In vivo cytotoxicity against mouse P388 cells at 40 mg/kg, ip, scheduled Q01D for 5 days relative to control; type: functional
[15] = test system: P388; experiment: In vivo cytotoxicity against mouse P388 cells at 10 mg/kg, ip, scheduled Q01D for 5 days relative to control; type: functional
[16] = test system: P388; experiment: In vivo cytotoxicity against mouse P388 cells at 24 mg/kg, ip, scheduled Q01D for 5 days relative to control; type: functional
[17] = test system: P388; experiment: In vivo cytotoxicity against mouse P388 cells at 48 mg/kg, ip, scheduled Q01D for 5 days relative to control; type: functional
[18] = test system: P388; experiment: In vivo cytotoxicity against mouse P388 cells at 12 mg/kg, ip, scheduled Q01D for 5 days relative to control; type: functional
[19] = test system: P388; experiment: In vivo cytotoxicity against mouse P388 cells at 3 mg/kg, ip, scheduled Q01D for 5 days relative to control; type: functional
[20] = test system: P388; experiment: In vivo cytotoxicity against mouse P388 cells at 6 mg/kg, ip, scheduled Q01D for 5 days relative to control; type: functional

Row | Compound | IC50 [1] [µg/mL] | T/C [2] [%] | IC50 [3] [µg/mL] | IC50 [4] [µg/mL] | T/C [5] [%] | T/C [6] [%] | IC50 [7] [µg/mL] | IC50 [8] [µg/mL] | T/C [9] [%] | T/C [10] [%] | T/C [11] [%] | T/C [12] [%] | T/C [13] [%] | T/C [14] [%] | T/C [15] [%] | T/C [16] [%] | T/C [17] [%] | T/C [18] [%] | T/C [19] [%] | T/C [20] [%]
1 | CC(=O)O[C@H]1C(=O)[C@@]2(C)[C@H]([C@H](OC(=O)c3ccccc3)[C@]3(O)C[C@H](OC(=O)[C@H](OC(=O)CCC(=O)NCCS(=O)(=O)[O-])[C@@H](NC(=O)c4ccccc4)c4ccccc4)C(C)=C1C3(C)C)[C@]1(OC(C)=O)CO[C@@H]1C[C@@H]2O.[Na+] | 0.03 | 114 | < 0.02 | 0.09 | 136 | 109 | < 0.02 | < 0.02 | 127 | 132 |  |  |  |  |  |  |  |  |  | 
2 | CC(=O)O[C@H]1C(=O)[C@@]2(C)[C@H]([C@H](OC(=O)c3ccccc3)[C@]3(O)C[C@H](OC(=O)[C@H](OC(=O)CCS(=O)(=O)[O-])[C@@H](NC(=O)c4ccccc4)c4ccccc4)C(C)=C1C3(C)C)[C@]1(OC(C)=O)CO[C@@H]1C[C@@H]2O.[Na+] | 0.05 |  | < 0.02 | 0.4 |  |  | 0.19 | 0.02 |  |  | 109 | 136 | 123 | 136 | 127 |  |  |  |  | 
3 | CC(=O)O[C@H]1C(=O)[C@@]2(C)[C@H]([C@H](OC(=O)c3ccccc3)[C@]3(O)C[C@H](OC(=O)[C@H](OC(=O)CCC(=O)NCCCS(=O)(=O)[O-])[C@@H](NC(=O)c4ccccc4)c4ccccc4)C(C)=C1C3(C)C)[C@]1(OC(C)=O)CO[C@@H]1C[C@@H]2O.[Na+] | 0.04 |  | < 0.02 | 0.19 |  |  | 0.11 | < 0.02 |  |  |  |  |  |  |  | 123 | 127 | 118 | 109 | 114
4 | CC(=O)O[C@H]1C(=O)[C@@]2(C)[C@H]([C@H](OC(=O)c3ccccc3)[C@]3(O)C[C@H](OC(=O)[C@H](O)[C@@H](NC(=O)c4ccccc4)c4ccccc4)C(C)=C1C3(C)C)[C@]1(OC(C)=O)CO[C@@H]1C[C@@H]2O [PACLITAXEL] | < 0.02 | 132 | < 0.02 | 4.79 (≈ 5.61 µM) |  | 150 | < 0.02 | < 0.02 | 155 |  |  |  |  |  |  |  |  |  |  | 
